# Assay results from US9981983B2, “Thienopyranones as kinase inhibitors” (SignalRx Pharmaceuticals, Inc., priority 2008, dated 2018).
# pIC50: −log10 of the molar value. Where two headings read alike, the source gives them in different places.
# Experiments:
# Type in all cases: cell-based
# [1] = system: 786-O cells; assay: Cellular proliferation (Example B method), 786-O; settings: Homo sapiens, 786-0, renal cell carcinoma
# Experimental: (§1) PC3 cells were obtained from the American Type Culture Collection (ATCC, Manassas, Va., Cat.# CRL-1435) Two thousand cells from the prostate cancer line PC3 were placed in 50 μL of complete RPMI 1640 media (Invitrogen, Carlsbad, Calif., Cat.#22400-105) with 10% fetal bovine serum (Invitrogen, Carlsbad, Calif., Cat.#10438-026) into each well of 96 well cell culture plates in a hexaplicate sampling pattern. A 50 μL aliquot of test compound (prepared from stock test compounds in DMSO diluted into media) was added to the appropriate well such that the final concentrations of test compound were 200, 40, 8, 1.6, 0.32, 0.064, 0.0128, 0.00256, and 0 μM and the final DMSO concentration was less than or equal to 0.2%.
# (§2) The plates were incubated for 72 hours 37° C. in an atmosphere of 5% CO2. At the end of this time a 10 μL aliquot of WST solution (Roche Applied Science, Mannheim, Germany) was added into each of the wells. Cells were exposed to the WST solution for 4 hours. A SpectraMax Plus spectrophotometric plate reader (Molecular Devices, Sunnydale, Calif.) was then used to measure the optical density at 450 nm (OD450 nm). Sigmoidal curves were drawn for the dose responses and IC50 values were calculated using the software package GraphPad Prism4 (GraphPad Software, Inc., San Diego, Calif.).
# (§3) Several other cancer cell lines were obtained from ATCC and grown according to their recommendations and treated with test compounds to obtain the concentration of test compound that inhibited the cellular proliferation by 50% of no-treatment controls. These IC50 values (μM) are listed in Table 7 below obtained by the methods described in Example B: […]
# [2] = system: AKT Ser473 phosphorylation in PC3 (prostate cancer) Cell Line; assay: pAKT Ser473 ELISA in PC3 cells stimulated by Bv8, VEGF, IGF; settings: Homo sapiens, PC-3, PC3, read-out: Concentration Required to Inhibit pAKT to Half-maximal Levels
# Experimental: (§4) This was followed by the addition of IGF, VEGF and Bv8 to 0.1 μg/mL, 0.1 μg/mL and 2.5 μg/mL respectively for another 30 minutes before harvesting the cells and making cell lysates with RIPA buffer keeping on ice, pAKT levels were measured in duplicate samples with Cell Signaling's Ser473 pAKT ELISA kit. Optical density plate readings of pAKT levels were made at 450 nm (OD450 nm) and were normalized by total protein amount of the cell lysates. The dose of compound at which pAKT levels are reduced to 50% of the non-treatment level was calculated using GraphPad Prism4 software and is listed in Tables 4 and 5 below.
# [3] = system: HCT116 (Colon); assay: Cell proliferation MTS assay, HCT116; settings: Homo sapiens, HCT-116, 72 hours
# Experimental: (§5) All cell lines were obtained from ATCC and cultured and plated according to ATCC recommendations. Cells were cultured in complete culture media containing 10% heat-inactivated fetal bovine serum (FBS, Mediatech, Inc.). For adherent cell lines, once cells reached 70% confluency, they were trypsinized and resuspended in phenol red free RPMI media (Mediatech, Inc.) plus 10% heat-inactivated FBS (assay buffer) and 100 μL aliquots were plated into each well of 96-well microtiter plates at a final density of 1,000-2,000 cells/well. Cells were incubated overnight at 37° C. in 5% CO2, and treated with test compounds on the next day. For suspension cell lines, cells were resuspended in assay buffer, plated into 96-well microtiter plates at a density of 10^4-10^5 cells/well/100 μL, and treatment was started on the same day. Cells were treated with vehicle (DMSO) and test compounds for 72 hours at concentration of 100, 70, 40, 20, 10, 5, 2.5, 1.25, 0.5 and 0.2 μM in four replicates at 37° C. in 5% CO2.
# [4] = system: PC3 cells; assay: PC3 prostate cancer cell proliferation (WST); settings: Homo sapiens, PC-3; 72 hours; read-out: IC50 PC3 Proliferation
# [5] = system: H1299 cells; assay: Cellular proliferation (Example B method), H1299; settings: Homo sapiens, NCI-H1299; H1299, non-small cell lung cancer
# Experimental: as §1, §2, §3
# [6] = system: HL60 (AML); assay: Cell proliferation MTS assay, HL60; settings: Homo sapiens, HL-60, 72 hours
# Experimental: as §5
# [7] = system: H1299 (Lung); assay: Cell proliferation MTS assay, H1299; settings: Homo sapiens, NCI-H1299, 72 hours
# Experimental: as §5
# [8] = system: SKMEL2 (Melanoma); assay: Cell proliferation MTS assay, SKMEL2; settings: Homo sapiens, SK-MEL-2, 72 hours
# Experimental: as §5
# [9] = system: K562 (CML); assay: Cell proliferation MTS assay, K562; settings: Homo sapiens, 72 hours
# Experimental: as §5
# [10] = system: 786-O (Renal); assay: Cell proliferation MTS assay, 786-O; settings: Homo sapiens, 786-0, 72 hours
# Experimental: as §5
# [11] = system: PC3 (Prostate); assay: Cell proliferation MTS assay, PC3; settings: 72 hours
# Experimental: as §5
# [12] = system: HUVEC (Endothelial-noncancer); assay: Cell proliferation MTS assay, HUVEC; settings: Homo sapiens, 72 hours
# Experimental: as §5
# [13] = system: MCF7 (Breast); assay: Cell proliferation MTS assay, MCF7; settings: Homo sapiens, 72 hours
# Experimental: as §5
# [14] = system: AKT Ser473 phosphorylation in renal cell carcinoma (786-O) Cell Line; assay: pAKT Ser473 ELISA in 786-O cells stimulated by Bv8, VEGF, IGF; settings: Homo sapiens, 786-0, 786-O, read-out: Concentration Required to Inhibit pAKT to Half-maximal Levels
# Experimental: as §4
smiles,measurement,setting,value
"O=c1cc(N2CCOCC2)oc2c(-c3ccc4c(c3)OCCO4)csc12 [Compound 28, 3-(2,3-dihydrobenzo[b][1,4]dioxin-6-yl)-5-morpholino-7H-thieno[3,2-b]pyran-7-one]",pIC50,[1],5.48
same,pIC50,[2]; stimulant Bv8,6.93
same,pIC50,[2]; stimulant IGF,6.05
same,pIC50,[2]; stimulant PBS,6.64
same,pIC50,[2]; stimulant VEGF,6.82
same,pIC50,[3],5.66
same,pIC50,[4],5.72 to 5.89
same,pIC50,[5],6.02
same,pIC50,[6],5.51
same,pIC50,[7],5.61
same,pIC50,[8],5.28
same,pIC50,[9],5.49
same,pIC50,[10],5.55
same,pIC50,[11],5.91
same,pIC50,[12],5.91
same,pIC50,[13],5.64
same,pIC50,[14]; stimulant Bv8,6.42
same,pIC50,[14]; stimulant IGF,5.58
same,pIC50,[14]; stimulant PBS,6.27
same,pIC50,[14]; stimulant VEGF,6.46
